Five compounds from patent US10308686B2, “Gamma-AApeptides with potent and broad-spectrum antimicrobial activity” (priority 2012, dated 2019) can be followed below.

The structures appear in SMILES notation. Converted amounts (≈) assume the structure as drawn.

One data set concerns C. albicans (ATCC 10231). To be noted: ATCC 10231.
In data set [1] the test system is vancomycin-resistant E. faecalis (ATCC 700802). To be noted: Table 7.
Data set [2] relates to methicillin-resistant S. aureus (ATCC 33592). The note with it: Table 7.
The subject of data set [3] is K. pneumoniae (ATCC 13383).
The subject of data set [4] is multi-drug resistant S. epidermidis (RP62A). To be noted: Table 7.
Data set [5] deals with human red blood cells (hRBC's). Briefly: Hemolysis assay. It is filed as cell-based. The note with it: red cells of human. On the procedure: Freshly drawn human red blood cells (hRBC's) with additive K2 EDTA (spray-dried) were washed with PBS buffer several times and centrifuged at 1000 g for 10 min until a clear supernatant was observed. The hRBC's were resuspended in 1×PBS to get a 5% v/v suspension. Two-fold serial dilutions of γ-AApeptides dissolved in 1×PBS from 250 μg/ml through 1.6 μg/ml were added to a sterile 96-well plate to make up a total volume of 50 μL in each well. Then 50 μL of 5% v/v hRBC solution was added to make up a total volume of 100 μL in each well. The 0% hemolysis point and 100% hemolysis point were determined in 1×PBS and 0.2% Triton-X-100, respectively (Patch et al., 2003). The plate was then incubated at 37° C. for 1 h and centrifuged at 3500 rpm for 10 min. The supernatant (30 μL) was diluted with 100 μL of 1×PBS and absorption was detected by measuring the optical density at 360 nm by Biotek Synergy HT microtiter plate reader. % hemolysis was determined by the following equation: % hemolysis=(Abssample−AbsPBS)/(AbsTriton−AbsPBS)×100 H50 is the concentration of γ-AApeptide amphiphiles at which 50% hemolysis was observed. The highest concentration tested in the hemolytic assay was 500 μg/ml. 7. Fluorescence Microscopy
The sequences shown in FIG. 12 were also evaluated via hemolytic assays. Freshly drawn human red blood cells (hRBC's) with additive K2 EDTA (spray-dried) were washed with PBS buffer several times and centrifuged at 1000 g for 10 min until a clear supernatant was observed. The hRBC's were resuspended in 1×PBS to get a 5% v/v suspension. Two-fold serial dilutions of lipidated γ-AApeptides dissolved in 1×PBS from 1 mg/ml through 6.3 μg/ml were added to sterile 96-well plates to make up a total volume of 50 μL in each well. Then 50 μL of 5% v/v hRBC solution was added to make up a total volume of 100 μL in each well. The 0% hemolysis point and 100% hemolysis point were determined in 1×PBS and 0.2% Triton-X-100, respectively (Patch et al., 2003). The plate was then incubated at 37° C. for 1 h and centrifuged at 3500 rpm for 10 min. The supernatant (30 μL) was diluted with 100 μL of 1×PBS and absorption was detected by measuring the optical density at 360 nm with a Biotek Synergy HT microtiter plate reader. % hemolysis was determined by the following equation: % hemolysis=(Abs sample−Abs PBS)/(Abs Triton−Abs PBS)×100

Data set [6] concerns multi-drug resistant P. aeruginosa ATCC 27853. The note with it: ATCC 27853.

As to `CCCCCCCCCCCCCCCC(=O)N[C@@H](CCCCN)CN(CC(=O)N[C@@H](CCCCN)CN(CC(=O)N[C@@H](CCCCN)CN(CC(N)=O)C(=O)CCCN)C(=O)CCCN)C(=O)CCCN` [Sequence 4], the “MIC, Fungi, C. albicans” value against C. albicans (ATCC 10231) is 2 µg/mL (≈ 1.95 µM). Further, the “MIC, Gram negative E. coli” value against E. coli (JM109) is 20 µg/mL (≈ 19.5 µM). Moreover, in [1], the “MIC, Gram positive E. faecalis” value was 10 µg/mL (≈ 9.76 µM). In addition, the “MIC, Gram positive B. subtilis” value with B. subtilis (BR151) amounted to 1.5 µg/mL (≈ 1.46 µM). The “MIC, Gram positive S. aureus” value in [2] is 5 µg/mL (≈ 4.88 µM). Moreover, in data set [3], the “MIC, Gram negative K. pneumoniae” value was greater than 50 µg/mL. In data set [4], the “MIC, Gram positive S. epidermidis” value was 2 µg/mL (≈ 1.95 µM). Besides, in data set [5], the “Hemolysis HC10” value is 300 µg/mL and the “Hemolysis HC50” value is greater than 500 µg/mL. For the same compound, the “MIC, Gram negative P. aeruginosa” value in data set [6] came out at 15 µg/mL (≈ 14.6 µM).
In the case of `CCCCCCCCCCCCCCCC(=O)N[C@@H](C)CN(CC(=O)N[C@@H](C)CN(CC(=O)N[C@@H](Cc1ccccc1)CN(CC(=O)N[C@@H](Cc1ccccc1)CN(CC(=O)N[C@@H](Cc1ccccc1)CN(CC(N)=O)C(=O)CC(=O)O)C(=O)CC(=O)O)C(=O)CC(=O)O)C(C)=O)C(C)=O` [Sequence 8], the “MIC, Fungi, C. albicans” value in the data set on C. albicans (ATCC 10231) was greater than 100 µg/mL. Also, in the data set on E. coli (JM109), the “MIC, Gram negative E. coli” value was greater than 100 µg/mL. Also, the “MIC, Gram positive E. faecalis” value in [1] was greater than 100 µg/mL. Moreover, the “MIC, Gram positive B. subtilis” value in the data set with B. subtilis (BR151) was greater than 100 µg/mL. For the same compound, in data set [2], the “MIC, Gram positive S. aureus” value is greater than 100 µg/mL. In data set [3], the “MIC, Gram negative K. pneumoniae” value was greater than 100 µg/mL. For the same compound, in data set [4], the “MIC, Gram positive S. epidermidis” value was greater than 100 µg/mL. In data set [5], the “Hemolysis HC10” value came to 200 µg/mL and the “Hemolysis HC50” value is greater than 500 µg/mL. Moreover, the “MIC, Gram negative P. aeruginosa” value in data set [6] was greater than 100 µg/mL.
Consider `CCCCCCCCCCCCCCCC(=O)N[C@@H](C)CN(CC(=O)N[C@@H](C)CN(CC(=O)N[C@@H](CCC(=O)O)CN(CC(=O)N[C@@H](CCC(=O)O)CN(CC(=O)N[C@@H](CCC(=O)O)CN(CC(N)=O)C(=O)CC(=O)O)C(=O)CC(=O)O)C(=O)CC(=O)O)C(C)=O)C(C)=O` [Sequence 7], for which, in the data set on C. albicans (ATCC 10231), the “MIC, Fungi, C. albicans” value was greater than 100 µg/mL. The “MIC, Gram negative E. coli” value against E. coli (JM109) is greater than 100 µg/mL. Moreover, the “MIC, Gram positive E. faecalis” value in [1] is greater than 100 µg/mL. Moreover, in the data set on B. subtilis (BR151), the “MIC, Gram positive B. subtilis” value was greater than 100 µg/mL. Further, the “MIC, Gram positive S. aureus” value in data set [2] is greater than 100 µg/mL. In addition, the “MIC, Gram negative K. pneumoniae” value in data set [3] is greater than 100 µg/mL. In addition, the “MIC, Gram positive S. epidermidis” value in data set [4] was greater than 100 µg/mL. For the same compound, in data set [5], the “Hemolysis HC10” value came out at 250 µg/mL and the “Hemolysis HC50” value was greater than 500 µg/mL. In addition, the “MIC, Gram negative P. aeruginosa” value in data set [6] was greater than 100 µg/mL.
`CC(=O)N(CC(=O)N[C@@H](C)CN(CC(=O)N[C@@H](CC(C)C)CN(CC(=O)N[C@@H](CC(C)C)CN(CC(=O)N[C@@H](CC(C)C)CN(CC(N)=O)C(=O)CCCN)C(=O)CCCN)C(=O)CCCN)C(C)=O)C[C@H](C)N` [Sequence 9]: the “MIC, Fungi, C. albicans” value in the data set with C. albicans (ATCC 10231) was greater than 100 µg/mL. In the data set with E. coli (JM109), the “MIC, Gram negative E. coli” value was greater than 100 µg/mL. Further, in data set [1], the “MIC, Gram positive E. faecalis” value was greater than 100 µg/mL. Besides, in the data set with B. subtilis (BR151), the “MIC, Gram positive B. subtilis” value was greater than 100 µg/mL. Moreover, the “MIC, Gram positive S. aureus” value in [2] was greater than 100 µg/mL. The “MIC, Gram negative K. pneumoniae” value in [3] was greater than 100 µg/mL. The “MIC, Gram positive S. epidermidis” value in data set [4] was greater than 100 µg/mL. In addition, in [5], the “Hemolysis HC10” value is 120 µg/mL and the “Hemolysis HC50” value is greater than 500 µg/mL. Further, in data set [6], the “MIC, Gram negative P. aeruginosa” value was greater than 100 µg/mL.
For the compound `CCCCCCCCCCCCCCCC(=O)N[C@@H](CCCCN)CN(CC(=O)N[C@@H](CCCCN)CN(CC(N)=O)C(=O)CCCN)C(=O)CCCN` [Sequence 3], the “MIC, Fungi, C. albicans” value with C. albicans (ATCC 10231) amounted to 2 µg/mL (≈ 2.6 µM). Also, in the data set on E. coli (JM109), the “MIC, Gram negative E. coli” value worked out at 30 µg/mL (≈ 39.1 µM). For the same compound, in [1], the “MIC, Gram positive E. faecalis” value came out at 8 µg/mL (≈ 10.4 µM). The “MIC, Gram positive B. subtilis” value against B. subtilis (BR151) came out at 1.5 µg/mL (≈ 1.95 µM). Further, the “MIC, Gram positive S. aureus” value in [2] is 5 µg/mL (≈ 6.51 µM). In [3], the “MIC, Gram negative K. pneumoniae” value was 20 µg/mL (≈ 26 µM). Further, the “MIC, Gram positive S. epidermidis” value in data set [4] turned out to be 2.5 µg/mL (≈ 3.25 µM). In addition, in data set [5], the “Hemolysis HC10” value turned out to be 40 µg/mL and the “Hemolysis HC50” value was determined as 300 µg/mL. Also, the “MIC, Gram negative P. aeruginosa” value in data set [6] is 20 µg/mL (≈ 26 µM).
